Measurements: patent US20070072222A1, “FABP4 as biomarker for toxic effect” (priority 2005, published 2007)

Experiments:
[1] = tested on: rat FABP4 (SEQ. ID NO: 2); assay: FABP4 gene expression in rat liver (Affymetrix microarray RG U34A); format: in vivo, Wistar rats; settings: for FABP4 expression relative to time matched vehicle control, Affymetrix result (Fold change): rat liver
Procedure: (§1) The expression levels of FABP4 of the mice (SEQ. ID NO: 3) were measured using Affymetrix microarrays (MEA 230 plus, probe sets: 1417023_a_at, 1424155_at, 1425809_at, 1451263_a_at) or Applied Biosystems Assays on Demand (assay ID: Mm00445880_ml). The expression levels of FABP4 of the rat (SEQ. ID NO: 2) were measured using Affymetrix microarrays (RG U34A, probe set: rc_AI169612_at) or Applied Biosystems Assays on Demand (assay ID: Rn00670361_ml). The expression levels of FABP4 of the monkeys were not measured.
(§2) Wistar rats (RCC Ltd, Füllinsdorf): • treatment with INDOMETHACIN (1-(4-Chlorobenzoyl)-5-methoxy-2-methyl-3-indoleacetic acid, Sigma I7378), single dose p.o. (orally); doses were 0, 2, 10 and 20 mg/kg • Treatment with INDOMETHACIN (1-(4-Chlorobenzoyl)-5-methoxy-2-methyl-3-indoleacetic acid, Sigma I7378) for 7 days; doses were 0, 2, and 5 mg/kg/day INDOMETHACIN was dissolved in corn oil. Treated animals were dosed orally (p.o.). The expression levels of FABP4 of the rat (SEQ. ID NO: 2) were measured using Affymetrix microarrays (RG U34A, probe sets: rc_AI169612_at) or Applied Biosystems Assays on Demand (assay ID: Rn00670361_ml).

[2] = tested on: monkey tissue (liver, heart, skeletal muscle, Brown adipose tissue); assay: Oral repeat-dose toxicity study in monkeys; format: in vivo, Cynomolgus Monkey (macaca fascicularis); settings: at similar exposure levels as in mice
Procedure: (§3) Cynomolgus Monkey (macaca fascicularis): • treatment with 3-{1-[2-(2-CHLORO-PHENYL)-5-METHYL-OXAZOL-4-YLMETHYL]-1H-INDOL-5-YL}-2-ETHOXY-PROPIONIC ACID for 28 days; doses were 0, 0.015, 0.09 and 0.31 mg/kg • Treatment with 3-{1-[2-(2-CHLORO-PHENYL)-5-METHYL-OXAZOL-4-YLMETHYL]-1H-INDOL-5-YL}-2-ETHOXY-PROPIONIC ACID for 16 weeks; doses were […], 0.1, 0.3 and 1 mg/kg 3-{1-[2-(2-CHLORO-PHENYL)-5-METHYL-OXAZOL-4-YLMETHYL]-1H-INDOL-5-YL}-2-ETHOXY-PROPIONIC ACID was dissolved in 20% propylene glycol/phosphate buffer, pH8. Treated animals were dosed orally (p.o.).

[3] = tested on: mouse FABP4 (SEQ. ID NO: 3); assay: FABP4 gene expression in mouse liver (Affymetrix microarray MEA 230 plus); format: in vivo, mouse (CD1, C57Bl/6); settings: mice, after p.o. administration
Procedure: (§4) CD-1 mice (Charles River Laboratories, UK): • treatment with 3-{1-[2-(2-CHLORO-PHENYL)-5-METHYL-OXAZOL-4-YLMETHYL]-1H-INDOL-5-YL}-2-ETHOXY-PROPIONIC ACID for 1 day; doses were 0, 0.2 and 3 mg/kg • treatment with 3-{1-[2-(2-CHLORO-PHENYL)-5-METHYL-OXAZOL-4-YLMETHYL]-1H-INDOL-5-YL}-2-ETHOXY-PROPIONIC ACID for 10 days; doses were 0, 0.2 and 3 mg/kg • treatment with 3-{1-[2-(2-CHLORO-PHENYL)-5-METHYL-OXAZOL-4-YLMETHYL]-1H-INDOL-5-YL}-2-ETHOXY-PROPIONIC ACID for 14 days; doses were 0, 0.6 and 15 mg/kg
(§5) C57BL6 mice (RCC Ltd, Füllinsdorf): • treatment with 3-{1-[2-(2-CHLORO-PHENYL)-5-METHYL-OXAZOL-4-YLMETHYL]-1H-INDOL-5-YL}-2-ETHOXY-PROPIONIC ACID for 1 day; doses were 0, 0.2 and 3 mg/kg • treatment with 3-{1-[2-(2-CHLORO-PHENYL)-5-METHYL-OXAZOL-4-YLMETHYL]-1H-INDOL-5-YL}-2-ETHOXY-PROPIONIC ACID for 10 days; doses were 0, 0.2 and 3 mg/kg
as §1

mice = assay: Oral repeat-dose toxicity study in mice; format: in vivo, mouse (CD-1, C57BL6)
Procedure: as §4, §5, §3

[4] = tested on: rat tissue (liver, heart, skeletal muscle, Brown adipose tissue); assay: Oral repeat-dose toxicity study in rats; format: in vivo, Wistar rats; settings: at similar exposure levels as in mice
Procedure: Wistar rats (RCC Ltd, Füllinsdorf): • treatment with 3-{1-[2-(2-CHLORO-PHENYL)-5-METHYL-OXAZOL-4-YLMETHYL]-1H-INDOL-5-YL}-2-ETHOXY-PROPIONIC ACID for 14 days; doses were 0, 0.3 and 1.2 mg/kg • Treatment with 3-{1-[2-(2-CHLORO-PHENYL)-5-METHYL-OXAZOL-4-YLMETHYL]-1H-INDOL-5-YL}-2-ETHOXY-PROPIONIC ACID for 28 days; doses were 0, 0.1, 0.5 and 2.5 mg/kg
as §3

livers = assay: Liver histopathology and clinical biochemistry in indomethacin treated rats; format: in vivo, Wistar rats
Procedure: as §2

[5] = tested on: rat FABP4 (SEQ. ID NO: 2); assay: FABP4 mRNA expression in rat liver by PCR (Applied Biosystems Assays on Demand); format: in vivo, Wistar rats
Procedure: as §1, §2

[6] = single dose 20 mg/kg, necropsy 24 hours

## CCOC(Cc1ccc2c(ccn2Cc2nc(-c3ccccc3Cl)oc2C)c1)C(=O)O (stereo not drawn) [3-{1-[2-(2-CHLORO-PHENYL)-5-METHYL-OXAZOL-4-YLMETHYL]-1H-INDOL-5-YL}-2-ETHOXY-PROPIONIC ACID]
[1]; rat, in vivo
  Expression of FABP4 in liver: not induced
[2]
  Toxicity in tissue (liver, heart, skeletal muscle, brown adipose tissue): not observed
[3]
  Expression of fatty acid binding protein 4 in liver: strong induction
mice; mice, p.o.
  Dose at which mortality occurred: ≥ 0.6 mg/kg/day
mice; mouse, in vivo, po
  Exposure at which dose-dependent severe toxicity was found: ≥ 50 × anticipated human exposure
  Findings in other tissues: degeneration of heart and skeletal muscle, and brown adipose tissue
[4]
  Toxicity in tissue (liver, heart, skeletal muscle, brown adipose tissue): not observed

## lipopolysaccharide
[1]; rats, after administration
  Expression of FABP4 in liver: an induction of the expression of FABP4 was also found

## ClC(Cl)(Cl)Cl [carbon tetrachloride]
[1]; rats, after administration
  Expression of FABP4 in liver: an induction of the expression of FABP4 was also found

## COc1ccc2c(c1)c(CC(=O)O)c(C)n2C(=O)c1ccc(Cl)cc1 [indomethacin, 1-(4-Chlorobenzoyl)-5-methoxy-2-methyl-3-indoleacetic acid]
[1]; Wistar, rat, in vivo
  Expression of FABP4 in liver: an induction of the expression of FABP4 was also found
[1]; 2 mg/kg/day for 7 days
  FABP4 expression relative to time matched vehicle control, Affymetrix result (Fold change): 1 Fold change
[1]; 5 mg/kg/day for 7 days
  FABP4 expression relative to time matched vehicle control, Affymetrix result (Fold change): 79.59 Fold change
[1]; single dose 2 mg/kg, necropsy 6 hours
  FABP4 expression relative to time matched vehicle control, Affymetrix result (Fold change): 1 Fold change
[1]; single dose 2 mg/kg, necropsy 24 hours
  FABP4 expression relative to time matched vehicle control, Affymetrix result (Fold change): 1 Fold change
[1]; single dose 10 mg/kg, necropsy 6 hours
  FABP4 expression relative to time matched vehicle control, Affymetrix result (Fold change): 1 Fold change
[1]; single dose 10 mg/kg, necropsy 24 hours
  FABP4 expression relative to time matched vehicle control, Affymetrix result (Fold change): 4.13 Fold change
[1]; single dose 20 mg/kg, necropsy 6 hours
  FABP4 expression relative to time matched vehicle control, Affymetrix result (Fold change): 1 Fold change
[1]; [6]
  FABP4 expression relative to time matched vehicle control, Affymetrix result (Fold change): 8.41 Fold change
[1]; rats, 24 hours after single dose 10 or 20 mg/kg, and 7 consecutive days 5 mg/kg/day
  Expression of fatty acid binding protein 4 in liver (Affymetrix gene arrays): strong induction
livers; especially 10 and 20 mg/kg single dose and 5 mg/kg/day repeated treatment
  Clinical biochemistry parameters: changes of different clinical biochemistry parameters indicative of liver changes
livers; p.o., dose dependent
  Liver histopathology: Slight histopathological alterations (hepatocellular hypertrophy)
livers; single administration of 10 or 20 mg/kg or 5 mg/kg/day for 7 consecutive days
  Hepatocellular glycogen deposition: Decreased hepatocellular glycogen deposition
[5]; 5 mg/kg/day for 7 days
  FABP4 expression relative to time matched vehicle control, PCR result (Fold change): 26.92 Fold change
[5]; [6]
  FABP4 expression relative to time matched vehicle control, PCR result (Fold change): 13.68 Fold change
